# Measurements as given in patent US9481670B2, “Triazine compounds” (Sphaera Pharma PTE. Ltd., priority 2011, dated 2016).
# Biological target: T1, PI3K alpha (Homo sapiens, UniProt P42336)
# T1 construct: purchased Millipore Upstate
# Assay: P110 Alpha TR-FRET Assay (PI3K alpha kinase assay, HTRF Transcreener ADP Assay)
# Assay type: biochemical
# Details: PI3K (WT)
# Method: PI3K alpha kinase assay may be done using HTRF Transcreener ADP Assay (Cisbio).
# Composition of the reaction buffer was as follows 50 mM HEPES, pH 7.5, 5 mM MgCl2, 1 mM DTT, 30 μM Na3VO4. PI3 Kinase was procured from Millipore Upstate. […] ATP was used at final concentration of 10 μM. Corning 384 well white plates were used for the assay.
# 2 μl of diluted enzyme (50 ng), 3 μl of diluted compound and 5 μl of buffer were added, mixed then incubated for 20 minutes with shaking at 400 rpm. 3 μl of substrate (10 μM of ATP and 5 μM PIP2) were added to initiate the reaction. The samples were incubated for 20 min. At the end of the reaction time 10 μl of the Detection mix (5 μl of ADP-D2 and 5 μl of Anti-ADP-Cryptate) was added and the contents were incubated for 1 h. The reaction plate was directly read in an Envision Multilabel Plate Reader.
# T1 sequence (P42336 whole entry): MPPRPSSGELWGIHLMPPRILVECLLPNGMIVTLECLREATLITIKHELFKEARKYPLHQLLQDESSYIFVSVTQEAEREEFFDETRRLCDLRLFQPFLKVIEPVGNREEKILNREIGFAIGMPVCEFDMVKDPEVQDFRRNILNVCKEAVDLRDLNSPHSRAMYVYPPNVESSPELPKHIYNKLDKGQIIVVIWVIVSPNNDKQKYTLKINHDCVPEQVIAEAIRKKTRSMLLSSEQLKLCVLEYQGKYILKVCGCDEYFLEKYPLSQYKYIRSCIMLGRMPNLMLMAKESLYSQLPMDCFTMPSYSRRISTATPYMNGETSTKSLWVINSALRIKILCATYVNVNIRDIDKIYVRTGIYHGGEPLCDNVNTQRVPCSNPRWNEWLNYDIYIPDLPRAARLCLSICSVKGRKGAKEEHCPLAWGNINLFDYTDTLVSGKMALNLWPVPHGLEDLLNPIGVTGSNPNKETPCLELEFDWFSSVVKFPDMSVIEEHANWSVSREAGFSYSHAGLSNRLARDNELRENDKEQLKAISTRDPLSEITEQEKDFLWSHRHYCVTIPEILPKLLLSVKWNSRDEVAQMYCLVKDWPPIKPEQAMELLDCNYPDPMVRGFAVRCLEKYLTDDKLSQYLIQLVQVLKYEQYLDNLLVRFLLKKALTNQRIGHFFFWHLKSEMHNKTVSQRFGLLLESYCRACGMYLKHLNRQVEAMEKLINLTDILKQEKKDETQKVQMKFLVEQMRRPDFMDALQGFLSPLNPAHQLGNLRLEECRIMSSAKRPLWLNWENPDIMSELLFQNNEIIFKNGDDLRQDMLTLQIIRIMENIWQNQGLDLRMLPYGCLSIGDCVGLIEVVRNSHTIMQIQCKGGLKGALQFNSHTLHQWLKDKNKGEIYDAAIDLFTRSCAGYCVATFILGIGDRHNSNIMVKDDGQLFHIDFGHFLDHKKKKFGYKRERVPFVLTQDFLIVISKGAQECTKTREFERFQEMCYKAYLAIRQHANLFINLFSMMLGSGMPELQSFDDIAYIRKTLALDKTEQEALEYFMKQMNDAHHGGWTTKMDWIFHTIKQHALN
# T1 sequence (P27986 whole entry partner): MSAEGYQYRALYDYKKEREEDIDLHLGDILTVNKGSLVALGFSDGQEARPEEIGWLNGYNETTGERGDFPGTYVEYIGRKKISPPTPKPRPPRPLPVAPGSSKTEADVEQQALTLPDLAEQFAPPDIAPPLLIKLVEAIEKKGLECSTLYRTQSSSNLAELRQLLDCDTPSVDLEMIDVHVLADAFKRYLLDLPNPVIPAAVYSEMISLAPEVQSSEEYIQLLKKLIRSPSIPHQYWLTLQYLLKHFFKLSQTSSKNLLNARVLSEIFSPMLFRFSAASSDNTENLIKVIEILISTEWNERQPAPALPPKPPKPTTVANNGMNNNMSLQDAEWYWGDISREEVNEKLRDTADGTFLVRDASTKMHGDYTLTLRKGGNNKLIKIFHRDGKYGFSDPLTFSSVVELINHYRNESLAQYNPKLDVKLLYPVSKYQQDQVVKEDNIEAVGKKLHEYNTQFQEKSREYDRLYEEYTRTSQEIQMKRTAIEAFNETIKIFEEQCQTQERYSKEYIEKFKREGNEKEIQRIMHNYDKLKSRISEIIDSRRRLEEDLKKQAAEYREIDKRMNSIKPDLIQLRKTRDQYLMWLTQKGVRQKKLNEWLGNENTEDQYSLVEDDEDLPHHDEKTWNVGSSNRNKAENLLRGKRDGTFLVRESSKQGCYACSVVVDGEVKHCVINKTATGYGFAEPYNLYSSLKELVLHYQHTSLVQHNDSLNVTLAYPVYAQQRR
row,SMILES,IC50 [µM]
1,"CN(C)C(=O)c1ccc(Oc2nc(-c3ccnc4[nH]ccc34)nc(N3CCOCC3)n2)cc1 [Compound 1058, N,N-dimethyl-4-14-{[4-5-(morpholin-4-yl)-6-1-{1H-pyrrolo[2,3-b]pyridin-4-yl}-1,3,5-triazin-2-yl]oxy}benzamide]",< 5
2,"CN(C)C(=O)c1ccc(Oc2nc(-c3cccc4[nH]ncc34)nc(N3CCNC(=O)C3)n2)cc1 [Compound 1059, 4-7-{[4-5-(1H-indazol-4-yl)-6-3-(3-29-oxopiperazin-1-yl)-1,3,5-triazin-2-yl]oxy}-N,N-dimethylbenzamide]",> 5
3,"CN(C)C(=O)c1cccc(Nc2nc(-c3ccc(N)nc3)nc(N3CCOCC3)n2)c1 [Compound 1060, 3-((4-(6-aminopyridin-3-yl)-6-morpholino-1,3,5-triazin-2-yl)amino)-N,N-dimethylbenzamide]",< 5
4,"CN1CCN(c2nc(Oc3ccc(C(=O)N(C)C)cc3)nc(-c3cccc4[nH]ncc34)n2)CC1 [Compound 1061, 4-9-{[4-1-(1H-indazol-4-yl)-6-5-(4-30-methylpiperazin-1-yl)-1,3,5-triazin-2-yl]oxy}-N,N-dimethylbenzamide]",> 5
5,"CS(=O)(=O)N1CCN(c2nc(-c3cnc(N)nc3)nc(N3CCOCC3)n2)CC1 [Compound 1062, 5-13-[4-3-(4-22-methanesulfonylpiperazin-1-yl)-6-5-(morpholin-4-yl)-1,3,5-triazin-2-yl]pyrimidin-2-amine]",< 5
6,"O=C1CCc2cc(Oc3nc(-c4cccc5[nH]ncc45)nc(N4CCOCC4)n3)ccc2N1 [Compound 1063, 6-14-{[4-1-(1H-indazol-4-yl)-6-5-(morpholin-4-yl)-1,3,5-triazin-2-yl]oxy}-1,2,3,4-tetrahydroquinolin-2-one]",< 5
7,"CN(C)C(=O)c1ccc(Oc2nc(-c3cccc4[nH]ccc34)nc(N3CCOCC3)n2)cc1 [Compound 1064, 4-14-{[4-1-(1H-indol-4-yl)-6-5-(morpholin-4-yl)-1,3,5-triazin-2-yl]oxy}-N,N-dimethylbenzamide]",< 5
8,"CN(C)C(=O)c1ccc(Nc2nc(-c3ccc(N)nc3)nc(N3CCOCC3)n2)cc1 [Compound 1065, 4-((4-(6-aminopyridin-3-yl)-6-morpholino-1,3,5-triazin-2-yl)amino)-N,N-dimethylbenzamide]",< 5
9,"C[C@H](Nc1nc(-c2cccc(NS(C)(=O)=O)c2)nc(N2CCOCC2)n1)C(=O)N1CCN(S(C)(=O)=O)CC1 [Compound 1066, N-[3-16-(4-1-{[(2S)-1-(4-30-methanesulfonylpiperazin-1-yl)-1-oxopropan-2-yl]amino}-6-2-(morpholin-4-yl)-1,3,5-triazin-2-yl)phenyl]methanesulfonamide]",> 5
10,"CN(C)C(=O)c1cc(Oc2nc(-c3cccc4[nH]ncc34)nc(N3CCOCC3)n2)cs1 [Compound 1067, 4-14-{[4-1-(1H-indazol-4-yl)-6-5-(morpholin-4-yl)-1,3,5-triazin-2-yl]oxy}-N,N-dimethylthiophene-2-carboxamide]",< 5
11,"CN(C)C(=O)c1ccc(Oc2nc(-c3cccc4[nH]ncc34)nc(N3C4CCC3COC4)n2)cc1 [Compound 1068, 4-9-{[4-1-(1H-indazol-4-yl)-6-5-{3-oxa-8-azabicyclo[3.2.1]octan-8-yl}-1,3,5-triazin-2-yl]oxy}-N,N-dimethylbenzamide]",> 5
12,"CN(C)C(=O)NC1CCN(c2nc(-c3ccc(N)nc3)nc(N3CCOCC3)n2)CC1 [Compound 1069, 1-{1-7-[4-3-(6-16-aminopyridin-3-yl)-6-5-(morpholin-4-yl)-1,3,5-triazin-2-yl]piperidin-4-yl}-3,3-dimethylurea]",< 5
13,"CN(C)C(=O)CNc1nc(-c2cccc3c2CCC3O)nc(N2CCOCC2)n1 (centres unmarked) [Compound 1070, 2-((4-(1-hydroxy-2,3-dihydro-1H-inden-4-yl)-6-morpholino-1,3,5-triazin-2-yl)amino)-N,N-dimethylacetamide]",> 5
14,"Nc1ccc(-c2nc(CO)nc(N3CCOCC3)n2)cn1 [Compound 1071, 1-7-[4-3-(6-16-aminopyridin-3-yl)-6-5-(morpholin-4-yl)-1,3,5-triazin-2-yl]methanol]",< 5
